Assay results reported in patent US9650339B2, “Inhibitors of histone demethylases” (Gilead Sciences, Inc., priority 2013, dated 2017).

Key:
KDM4C (JMJD2C) = target: T1, KDM4C (JMJD2C) (Homo sapiens, UniProt Q9H3R0); assay: Histone lysine demethylase AlphaLISA assay, KDM4C; type: biochemical; details: read-out: KDM4C HDME Inhibition IC50
T1 sequence (Q9H3R0 1-349): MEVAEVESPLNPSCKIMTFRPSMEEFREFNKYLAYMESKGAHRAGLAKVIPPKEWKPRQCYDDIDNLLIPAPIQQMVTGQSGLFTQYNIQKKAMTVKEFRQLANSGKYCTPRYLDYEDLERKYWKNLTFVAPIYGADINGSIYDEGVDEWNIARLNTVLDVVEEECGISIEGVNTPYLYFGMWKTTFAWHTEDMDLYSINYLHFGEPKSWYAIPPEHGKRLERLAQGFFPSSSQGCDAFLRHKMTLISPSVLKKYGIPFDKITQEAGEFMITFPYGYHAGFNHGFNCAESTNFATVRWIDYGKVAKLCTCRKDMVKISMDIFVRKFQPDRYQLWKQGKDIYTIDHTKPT
How it was run: (§1)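 Biotinylated methylated H3 peptides (K9, K4, K27 or K36 marks) served as substrate, with 25 μM L-Asc and 10 μM α-KG. Enzymes were preincubated 10 min, then exposed to compounds (3% DMSO solutions) 10 min; product detected by AlphaLISA acceptor and streptavidin donor beads at room temperature in dark.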

KDM6A (UTX) = KDM6A (UTX) (Homo sapiens, UniProt O15550); assay: Histone lysine demethylase AlphaLISA assay, KDM6A; type: biochemical; details: read-out: KDM6A HDME Inhibition IC50
Sequence of KDM6A (UTX) (O15550 919-1401): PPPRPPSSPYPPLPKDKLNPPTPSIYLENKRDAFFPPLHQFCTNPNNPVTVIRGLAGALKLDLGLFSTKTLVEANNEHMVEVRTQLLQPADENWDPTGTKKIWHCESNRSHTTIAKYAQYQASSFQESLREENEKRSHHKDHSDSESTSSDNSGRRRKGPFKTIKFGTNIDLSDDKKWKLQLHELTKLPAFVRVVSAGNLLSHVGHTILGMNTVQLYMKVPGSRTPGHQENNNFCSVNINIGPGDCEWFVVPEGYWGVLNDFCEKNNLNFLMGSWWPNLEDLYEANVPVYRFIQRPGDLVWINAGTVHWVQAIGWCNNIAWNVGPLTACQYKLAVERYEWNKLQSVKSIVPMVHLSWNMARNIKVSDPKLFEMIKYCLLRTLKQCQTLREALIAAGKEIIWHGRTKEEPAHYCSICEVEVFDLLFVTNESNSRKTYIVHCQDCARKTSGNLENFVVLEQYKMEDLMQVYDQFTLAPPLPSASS
How it was run: as §1

KDM5B = target: T2, KDM5B (Homo sapiens, UniProt Q9UGL1); assay: Histone lysine demethylase immunofluorescence assay, U2OS cells transfected with KDM5B; type: cell-based; details: U2OS cells transfected with pCMVHA KDM5B; mark detected H3K4me2; 20 hours
T2 construct: (a.a. 1-752); host or cells: U2OS
T2 sequence (Q9UGL1 1-752): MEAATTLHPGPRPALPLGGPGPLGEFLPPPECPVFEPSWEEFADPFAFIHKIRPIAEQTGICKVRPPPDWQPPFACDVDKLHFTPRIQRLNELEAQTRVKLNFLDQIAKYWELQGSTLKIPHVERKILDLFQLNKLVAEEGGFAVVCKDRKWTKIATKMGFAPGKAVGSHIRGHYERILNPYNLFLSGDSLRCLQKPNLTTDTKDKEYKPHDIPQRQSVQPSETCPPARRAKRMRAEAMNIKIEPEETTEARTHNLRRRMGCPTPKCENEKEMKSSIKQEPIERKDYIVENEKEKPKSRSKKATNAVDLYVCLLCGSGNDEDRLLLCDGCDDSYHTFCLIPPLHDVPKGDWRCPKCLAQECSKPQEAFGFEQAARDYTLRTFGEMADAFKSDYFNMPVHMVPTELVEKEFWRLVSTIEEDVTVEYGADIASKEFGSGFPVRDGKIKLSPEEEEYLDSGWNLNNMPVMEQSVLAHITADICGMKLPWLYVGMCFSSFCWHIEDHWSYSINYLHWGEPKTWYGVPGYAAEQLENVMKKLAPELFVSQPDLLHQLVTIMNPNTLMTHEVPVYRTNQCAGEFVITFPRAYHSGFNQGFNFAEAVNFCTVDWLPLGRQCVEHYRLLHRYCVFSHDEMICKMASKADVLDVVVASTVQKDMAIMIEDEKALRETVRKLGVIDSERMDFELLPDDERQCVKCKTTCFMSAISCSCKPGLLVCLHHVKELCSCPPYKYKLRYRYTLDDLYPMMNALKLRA
Method: U2OS cells were seeded 24 hours before transfection. Transfection was performed with Fugene HD transfection reagent as recommended by the manufacturer. 6 hours after transfection, the cells were harvested and seeded into multi well plates into media containing compound. The media used was DMEM containing 10% FBS and pen/strep. 20 hours after incubation of cells with compounds, the cells were washed in PBS, harvested by fixation with formaldehyde 4% aqueous solution, and washed in PBS. Subsequently, the cells were permeabilized in PBS with 0.2% Triton X-100 for. Blocking was performed in PBS with 0.2% Triton X-100 and 5% FBS. The cells were incubated with primary antibodies in blocking solution over night at 4° C. The primary antibodies used in the assays were HA.11 (Covance, MMS-101P) and the antibody detecting the mark specified in the table below. After incubation with primary antibodies, the cells were washed with PBS, incubated with secondary antibodies (Alexa fluor 594 goat anti rabbit IgG, Invitrogen, A11012; Alexa flour 488 donkey anti mouse IgG, Invitrogen, A21202) and Hoechst, (Sigma, 33342) in blocking solution, and washed again with PBS. Finally, PBS was added and high throughput imaging and analysis were performed by an IN Cell Analyzer 1000 (GE Healthcare). The robot software analyzed individual cells and divided these into HA+ (transfected cells) and HA− (non-transfected cells). The IC50 values were based on an average measure of the staining of the mark specified in the table below in the transfected cells.

| SMILES | IC50 (KDM4C (JMJD2C)) [nM] | IC50 (KDM6A (UTX)) [nM] | IC50 (KDM5B) [nM] |
| --- | --- | --- | --- |
| CCN(CCN(C)C)C(=O)CNCc1cc(CNC(=O)C(F)(F)F)ccn1 [Compound 25, N-[(2-{[({[2-(dimethylamino)ethyl]-(ethyl)carbamoyl}-methyl)amino]methyl}-pyrtdin-4-yl)methyl]-2,2,2-trifluoroacetamide] | > 2500 | > 2500 | < 250 |
| CN(C)C(=O)CNCc1cc(/C=N\C2CC2)ccn1 [Compound 33] | < 250 | > 2500 | 250 to 2500 |
| CN(C)C(=O)CNCc1cc(/C=N/CCCc2ccccc2)ccn1 [Compound 34, N,N-dimethyl-2-[({4-[[(3-phenylpropyl)imino]-methyl]pyridin-2-yl}methyl)amino]-acetamide] | 250 to 2500 | > 2500 | 250 to 2500 |
| CC1CC1/N=C/c1ccnc(CNCC(=O)N(C)C)c1 (stereo not drawn) [Compound 35, N,N-dimethyl-2-[({4-[N-(2-methylcyclopropyl)-carboximidoyl]pyridin-2-yl}methyl)amino]-acetamide] | 250 to 2500 | > 2500 | 250 to 2500 |
| CN(C)C(=O)CNCc1cc(/C=N/CCC2CCCCC2)ccn1 [Compound 36, 2-[({4-[[(2-cyclohexylethyl)imino]-methyl]pyridin-2-yl}methyl)amino]-N,N-dimethylacetamide] | 250 to 2500 | > 2500 | 250 to 2500 |
| CN(C)CCCNCc1cc(/C=N/CCN(C)C)ccn1 [Compound 38, ({4-[{[2-(dimethylamino)ethyl]-imino}methyl]pyridin-2-yl}methyl)[3-(dimethylamino)-propyl]amine] | 250 to 2500 | > 2500 | < 250 |
| CCSCCNCc1cc(/C=N/C2CC2)ccn1 [Compound 39, N-{[2-({[2-(ethylsulfanyl)-ethyl]amino}methyl)pyridin-4-yl]methylidene}-cyclopropanamine] | > 2500 | > 2500 | > 2500 |
| CN1CCCC1CCNCc1cc(/C=N/C2CC2)ccn1 (stereo not drawn) [Compound 40, N-{[2-({[2-(l-methylpyrrolidin-2-yl)ethyl]amino}methyl)-pyridin-4-yl]methylidene}-cyclopropanamine] | > 2500 | > 2500 | < 250 |
| CN(CCCNCc1cc(/C=N/C2CC2)ccn1)Cc1ccccc1 [Compound 41, N-({2-[({3-[benzyl(methyl)amino]-propyl}amino)methyl]-pyridin-4-yl}methylidene)-cyclopropanamine] | 250 to 2500 | > 2500 | 250 to 2500 |
| C(=N/C1CC1)/c1ccnc(CNCCCN2CCCC2)c1 [Compound 42, N-{[2-({[3-(pyrrolidin-1-yl)propyl]amino}-methyl)pyridin-4-yl]methylidene}-cyclopropanamine] | > 2500 | > 2500 | < 250 |
| CN(C)C/C=C/CNCc1cc(/C=N/C2CC2)ccn1 [Compound 43, N-{[2-({[(2E)-4-(dimethylamino)but-2-en-1-yl]amino}-methyl)pyridin-4-yl]methylidene}-cyclopropanamine] | < 250 | > 2500 | < 250 |
| CN(C)CCCCNCc1cc(/C=N\C2CC2)ccn1 [Compound 45, N-{[2-({[4-(dimethylamino)butyl]-amino}methyl)-pyridin-4-yl]methylidene}-cyclopropanamine] | > 2500 | > 2500 | < 250 |
| CN(C)CC1CCC(CNCc2cc(/C=N/C3CC3)ccn2)CC1 (stereo not drawn) [Compound 46, N-[(2-{[({4-[(dimethylamino)-methyl]cyclohexyl}-methyl)amino]-methyl}pyridin-4-yl)methylidene]-cyclopropanamine] | > 2500 | > 2500 | < 250 |
| CN(C)CCCCCNCc1cc(/C=N/C2CC2)ccn1 [Compound 47, N-{[2-({[5-(dimethylamino)-pentyl]amino}-methyl)pyridin-4-yl]methylidene}-cyclopropanamine] | > 2500 | > 2500 | < 250 |
| CCN(CC)CCCCNC(=O)CNCc1cc(/C=N/C2CC2)ccn1 [Compound 48, 2-[({4-[N-cyclopropyl-carboximidoyl]pyridin-2-yl}methyl)amino]-N-[4-(diethylamino)-butyl]acetamide] | 250 to 2500 | > 2500 | > 2500 |
| O=C(CNCc1cc(/C=N/C2CC2)ccn1)N1CCC[C@@H]1CN1CCCC1 [Compound 49, 2-[({4-[N-cyclopropyl-carboximidoyl]pyridin-2-yl}methyl)amino]-1-[(2R)-2-(pyrrolidin-1-ylmethyl)pyrrolidin-1-yl]ethan-1-one] | 250 to 2500 | > 2500 | < 250 |
| CCN(CCC#N)C(=O)CNCc1cc(/C=N/C2CC2)ccn1 [Compound 50, N-(2-cyanoethyl)-2-[({4-[N-cyclopropyl-carboximidoyl]-pyridin-2-yl}methyl)amino]-N-ethylacetamide] | 250 to 2500 | > 2500 | 250 to 2500 |
| CCN1CCCC1CNC(=O)CNCc1cc(/C=N/C2CC2)ccn1 (stereo not drawn) [Compound 51, 2-[({4-[N-cyclopropyl-carboximidoyl]-pyridin-2-yl}methyl)-amino]-N-[(1-ethylpyrrolidin-2-yl)methyl]acetamide] | > 2500 | > 2500 | 250 to 2500 |
| CN(CCCn1cccn1)C(=O)CNCc1cc(/C=N/C2CC2)ccn1 [Compound 52, 2-[({4-[N-cyclopropyl-carboximidoyl]-pyridin-2-yl}methyl)amino]-N-methyl-N-[3-(1H-pyrazol-1-yl)propyl]acetamide] | 250 to 2500 | > 2500 | 250 to 2500 |
| O=C(CNCc1cc(/C=N/C2CC2)ccn1)NC1CCN(Cc2ccccc2)C1 (stereo not drawn) [Compound 53, N-(1-benzylpyrrolidin-3-yl)-2-[({4-[N-cyclopropyl-carboximidoyl]pyridin-2-yl}methyl)amino]-acetamide] | 250 to 2500 | > 2500 | 250 to 2500 |
| CN1CCN(C(=O)CNCc2cc(/C=N/C3CC3)ccn2)CC1 [Compound 54, 2-[({4-[N-cyclopropyl-carboximidoyl]-pyridin-2-yl}methyl)amino]-1-(4-methylpiperazin-1-yl)ethan-1-one] | 250 to 2500 | > 2500 | 250 to 2500 |
| O=C(CNCc1cc(/C=N/C2CC2)ccn1)N1CCC(Cc2ccccc2)CC1 [Compound 55, 1-(4-benzylpiperidin-1-yl)-2-[({4-[N-cyclopropyl-carboximidoyl]-pyridin-2-yl}methyl)amino]-ethan-1-one] | 250 to 2500 | > 2500 | > 2500 |
| C#CCN(C)C(=O)CNCc1cc(/C=N/C2CC2)ccn1 [Compound 56, 2-[({4-[N-cyclopropyl-carboximidoyl]-pyridin-2-yl}methyl)amino]-N-methyl-N-(prop-2-yn-1-yl)acetamide] | > 2500 | > 2500 | > 2500 |
| CCN(CC)CCCCNCc1cc(/C=N/CCO)ccn1 [Compound 61, 2-[{[2-({[4-(diethylamino)-butyl]amino}-methyl)pyridin-4-yl]methylidene}-amino]ethan-1-ol] | 250 to 2500 | > 2500 | < 250 |
